Values belong to the compound of their own block, whether it stands above or below them.
What was measured:
[1] = system: CD69+B220+ cells (mouse spleen cells); assay: B cell activation assay (IgD-stimulated CD69 on B220+ spleen cells, FACS); type: cell-based; conditions: 100 nM test compound, 30 min, then IgD 3 μg/mL 4 h, read-out: CD69 @ 100 nM (% Inh)
Method: 1 Female mouse approximately 2 months old was euthanized with CO2 and the spleen removed. The tissue was homogenized with a polished glass microscope slide. The cells were collected in 5 mL complete medium (RPMI+10% FBS+pen/strep), placed in a 15 mL falcon tube and centrifuged at 500×g for 5 min. The supernatant was discarded and the pellet was resuspended in 3 mL of ACK lysis buffer (NH4Cl 0.17M, KHCO3 10 mM, EDTA-Na2 0.1 mM, pH 7.2), incubated at 37° C. for 5 min. 2 mL complete medium was added and the mixture centrifuged at 500×g for 5 min. The supernatant was discarded and the pellet resuspended in 1 mL complete medium. The mixture was passed through a […] cell strainer and collect in 50 mL falcon tube. Enough medium was added to have a total of 10 mL. The cells were counted and seeded in 24 or 48-well plate in 1 mL complete medium at 10^6 cells/mL. The plate was placed in a 37° C. incubator for 15 min. The cells were treated for 30 min at 37° C. with 100 nM test compound dissolved in 100% DMSO. 3 μL IgD (Accurate chemical and scientific corp.) was added at a final concentration of 3 μg/mL and the mixture incubated at 37° C. for 4 h. The cells were collected in 1.5 mL eppendorf tubes, centrifuged at 500×g for 5 min and then resuspended in 100 μL of PBS+2% FBS. The following antibodies were added: α-B220 PE (pharmingen #553090), α-CD69 APC (pharmingen #60689), live/dead fixable aqua dead cell stain kit (life technologies # L34957) all at 1:300, and the mixture incubated for 15 min at 4° C. in the dark. To this was added 900 μL of PBS+2% FBS and the mixture centrifuged at 500×g for 5 min. The supernatant was removed and the pellet resuspended in 300 μL of PBS+2% FBS and mixed well. The mixture was transferred to a cytometer tube. The samples were run in the FACS Canto II cytometer and quantified by the number of CD69+B220+ cells as a percentage of the total number of B220+ alive cells.

[2] = system: CD69+B220+ cells (mouse spleen cells); assay: as above; type: cell-based; conditions: IgD 3 μg/mL 4 h

SMILES: C=CC(=O)N(CCn1nc(-c2cc(O)cc(F)c2)c2c(N)ncnc21)Cc1ccccc1F [Compound 11, N-[2-[4-amino-3-(3-fluoro-5-hydroxy-phenyl)pyrazolo[3,4-d]pyrimidin-1-yl]ethyl]-N-[(2-fluorophenyl)methyl]prop-2-enamide]
inhibition at 0.1 µM [1]: -23.7 ± 39.7%

SMILES: C=CC(=O)N(CCn1nc(-c2cc(O)cc(F)c2)c2c(N)ncnc21)c1ccccc1 [Compound 2, N-(2-(4-amino-3-(3-fluoro-5-hydroxyphenyl)-1H-pyrazolo[3,4-d]pyrimidin-1-yl)ethyl)-N-phenylacrylamide]
inhibition at 0.1 µM [1]: -114 ± 72.2%

SMILES: C=CC(=O)N(CCn1nc(-c2cc(O)cc(F)c2)c2c(N)ncnc21)Cc1ccc(F)cc1 [Compound 10, N-{2-[4-amino-3-(3-fluoro-5-hydroxyphenyl)-1H-pyrazolo [3,4-d]pyrimidin-1-yl]ethyl}-N-[(4-fluorophenyl)methyl]prop-2-enamide]
inhibition at 0.1 µM [1]: -23.7 ± 39.7%

SMILES: C=CC(=O)N(CCn1nc(-c2cc(O)cc(F)c2)c2c(N)ncnc21)Cc1ccc(Cl)cc1 [Compound 12, N-{2-[4-amino-3-(3-fluoro-5-hydroxyphenyl)-1H-pyrazolo[3,4-d]pyrimidin-1-yl]ethyl}-N-[(4-chlorophenyl)methyl]prop-2-enamide]
inhibition at 0.1 µM [1]: -44.7 ± 53.6%

SMILES: C=CC(=O)N(CCn1nc(-c2cc(O)cc(F)c2)c2c(N)ncnc21)Cc1ccccc1 [Compound 5, N-(2-(4-amino-3-(3-fluoro-5-hydroxyphenyl)-1H-pyrazolo[3,4-d]pyrimidin-1-yl)ethyl)-N-benzylacrylamide]
inhibition at 0.1 µM [1]: 12.5 ± 22.3%

IC50 [2]: 55.1 ± 38.3 nM
SMILES: Nc1ncnc2c1c(-c1cc(O)cc(F)c1)nn2CCNc1ccccc1 [Compound 1, 3-(4-amino-1-(2-(phenylamino)ethyl)-1H-pyrazolo [3,4-d]pyrimidin-3-yl)-5-fluorophenol]
inhibition at 0.1 µM [1]: 74.5 ± 6.72%

SMILES: C=CC(=O)N(CCn1nc(-c2cc(O)c(F)c(F)c2)c2c(N)ncnc21)Cc1ccc(Cl)cc1 [Compound 16, N-{2-[4-amino-3-(3,4-difluoro-5-hydroxyphenyl)-1H-pyrazolo[3,4-d]pyrimidin-1-yl]ethyl}-N-[(4-chlorophenyl)methyl]prop-2-enamide]
inhibition at 0.1 µM [1]: -44.8 ± 29.4%
